Experimental data taken from PubChem BioAssay AID248 (DTP/NCI, 2004).
Where “and” joins values, the source holds several entries; their conditions need not be identical. Identical values can stand only once. Inconclusive results and toxic doses are left out. Cut-off read from the data, not from the text of the source: active = T/C of 150% or more; inactive = T/C below 125%.

Tested on: L1210 leukemia ip in BDF1 mice, survival T/C
Assay: NCI In Vivo Anticancer Drug Screen. Data for tumor model L1210 Leukemia (intraperitoneal) in B6D2F1 (BDF1) mice
Details: endpoint: mean survival time, higher = longer survival
Procedure, shortened: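 Mice bearing the transplanted tumor received compound or vehicle. Survival of the treated group was divided by that of the vehicle-treated control group to give the ratio.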

[1] = dose: 100.0 mg/kg/injection, schedule: Q04DX002 (ip), vehicle: saline with Tween-80
[2] = dose: 100.0 mg/kg/injection, schedule: Q04DX003 (ip), vehicle: saline with Tween-80
[3] = dose: 200.0 mg/kg/injection, schedule: Q04DX002 (ip), vehicle: saline with Tween-80
[4] = dose: 200.0 mg/kg/injection, schedule: Q04DX003 (ip), vehicle: saline with Tween-80
[5] = dose: 400.0 mg/kg/injection, schedule: Q04DX002 (ip), vehicle: saline with Tween-80
[6] = dose: 400.0 mg/kg/injection, schedule: Q04DX003 (ip), vehicle: saline with Tween-80
[7] = dose: 100.0 mg/kg/injection, schedule: Q01DX009 (ip), vehicle: Klucel (hydroxypropylcellulose) (HPC)
[8] = dose: 200.0 mg/kg/injection, schedule: Q01DX009 (ip), vehicle: Klucel (hydroxypropylcellulose) (HPC)
[9] = dose: 100.0 mg/kg/injection, schedule: Q04DX002 (ip), vehicle: Klucel (hydroxypropylcellulose) (HPC)
[10] = dose: 200.0 mg/kg/injection, schedule: Q04DX002 (ip), vehicle: Klucel (hydroxypropylcellulose) (HPC)
[11] = dose: 400.0 mg/kg/injection, schedule: Q04DX002 (ip), vehicle: Klucel (hydroxypropylcellulose) (HPC)
[12] = dose: 75.0 mg/kg/injection, schedule: Q01DX001 (ip), vehicle: saline
[13] = dose: 6.25 mg/kg/injection, schedule: Q04DX003 (ip), vehicle: saline
[14] = dose: 12.5 mg/kg/injection, schedule: Q04DX003 (ip), vehicle: saline

Measured: T/C

CCCCCCCCCCCC(=O)Nc1ccc(NC(C)=O)cc1
inactive: dose: 100.0 mg/kg/injection, schedule: Q01DX009 (ip), vehicle: saline with Tween-80 96 % of control and 104 % of control | [1] 93 % of control and 94 % of control | [2] 95 % of control | dose: 200.0 mg/kg/injection, schedule: Q01DX009 (ip), vehicle: saline with Tween-80 93 % of control and 96 % of control | [3] 111 % of control and 91 % of control | [4] 108 % of control | dose: 400.0 mg/kg/injection, schedule: Q01DX009 (ip), vehicle: saline with Tween-80 96 % of control | [5] 96 % of control and 102 % of control | [6] 95 % of control

C/C=C/C(=O)Nc1cccc(C)c1C
inactive: [7] 93 % of control and 95 % of control | [8] 100 % of control | dose: 400.0 mg/kg/injection, schedule: Q01DX009 (ip), vehicle: Klucel (hydroxypropylcellulose) (HPC) 92 % of control

CCOC(=O)C/C(C)=N/N=C(\CCOC)COC
inactive: dose: 100.0 mg/kg/injection, schedule: Q01DX001 (ip), vehicle: carboxymethylcellulose (CMC) 87 % of control | dose: 200.0 mg/kg/injection, schedule: Q01DX001 (ip), vehicle: carboxymethylcellulose (CMC) 103 % of control | dose: 400.0 mg/kg/injection, schedule: Q01DX001 (ip), vehicle: carboxymethylcellulose (CMC) 103 % of control

CSc1nc(-c2ccc([N+](=O)[O-])cc2)oc1/N=C/c1ccc([N+](=O)[O-])cc1
inactive: [9] 96 % of control | [10] 96 % of control | [11] 96 % of control

O=[N+]([O-])c1ccc(/C(=C/c2ccccc2)[n+]2ccccc2)cc1
inactive: dose: 10.0 mg/kg/injection, schedule: Q01DX001 (ip), vehicle: saline 106 % of control | dose: 20.0 mg/kg/injection, schedule: Q01DX001 (ip), vehicle: saline 100 % of control | dose: 40.0 mg/kg/injection, schedule: Q01DX001 (ip), vehicle: saline 100 % of control

CCOC(=O)c1c(/N=C/c2cc(Br)ccc2O)sc2c1CCCC2
inactive: [1] 109 % of control | [3] 102 % of control | [5] 98 % of control

CCc1nc(=S)c2ncn(CC)c2[nH]1
inactive: [2] 106 % of control | [4] 96 % of control | [6] 90 % of control

S=C([S-])N1CCOCC1.S=C([S-])N1CCOCC1.[Zn]
inactive: dose: 4.68 mg/kg/injection, schedule: Q01DX009 (ip), vehicle: saline 90 % of control | dose: 9.37 mg/kg/injection, schedule: Q01DX009 (ip), vehicle: saline 86 % of control | dose: 18.75 mg/kg/injection, schedule: Q01DX009 (ip), vehicle: saline 91 % of control | dose: 18.75 mg/kg/injection, schedule: Q04DX003 (ip), vehicle: saline 100 % of control | dose: 37.5 mg/kg/injection, schedule: Q04DX003 (ip), vehicle: saline 100 % of control | [12] 90 % of control

C=C1Sc2ccccc2N1C
inactive: dose: 6.25 mg/kg/injection, schedule: Q01DX015 (ip), vehicle: saline 97 % of control | dose: 12.5 mg/kg/injection, schedule: Q01DX015 (ip), vehicle: saline 97 % of control | dose: 25.0 mg/kg/injection, schedule: Q01DX015 (ip), vehicle: saline 95 % of control | dose: 50.0 mg/kg/injection, schedule: Q01DX015 (ip), vehicle: saline 91 % of control

CC(=O)OCC(=O)[C@@]1(O)CC[C@H]2[C@@H]3CCC4=CC(=O)[C@H](C)C[C@]4(C)[C@@]3(F)[C@@H](O)C[C@@]21C
inactive: dose: 50.0 mg/kg/injection, schedule: Q01DX Z (sc), vehicle: steriod suspending solution 114 % of control | dose: 100.0 mg/kg/injection, schedule: Q01DX Z (sc), vehicle: steriod suspending solution 114 % of control

CCC(C)N=C(N)C(N)=NC(C)CC (stereo not given)
inactive: dose: 100.0 mg/kg/injection, schedule: Q04DX002 (ip), vehicle: saline 103 % of control | dose: 200.0 mg/kg/injection, schedule: Q04DX002 (ip), vehicle: saline 103 % of control

O=C([S][Ge]([c]1ccccc1)([c]1ccccc1)[c]1ccccc1)c1ccc([N+](=O)[O-])cc1
inactive: [7] 114 % of control | [8] 92 % of control

CCN(CCO)c1ccc(N)cc1C
inactive: dose: 0.5 mg/kg/injection, schedule: Q04DX003 (ip), vehicle: saline 97 % of control | dose: 1.0 mg/kg/injection, schedule: Q04DX003 (ip), vehicle: saline 95 % of control | dose: 2.0 mg/kg/injection, schedule: Q04DX003 (ip), vehicle: saline 97 % of control | [13] 88 % of control | [14] 102 % of control

O=C(Nc1ccc([N+](=O)[O-])cc1Cl)Oc1ccc(Cl)cc1Cc1ccccc1
inactive: [2] 88 % of control | [4] 93 % of control | [6] 102 % of control

CN1C2CCCCC1C1CCCCC2[N+]1(C)C
inactive: [12] 96 % of control

CC[N+](CC)(CC)Cc1ccccc1
inactive: dose: 6.25 mg/kg/injection, schedule: Q01DX009 (ip), vehicle: Klucel (hydroxypropylcellulose) (HPC) 104 % of control | [13] 113 % of control | dose: 12.5 mg/kg/injection, schedule: Q01DX009 (ip), vehicle: Klucel (hydroxypropylcellulose) (HPC) 107 % of control | [14] 97 % of control | dose: 25.0 mg/kg/injection, schedule: Q01DX001 (ip), vehicle: saline 96 % of control and 100 % of control | dose: 25.0 mg/kg/injection, schedule: Q01DX009 (ip), vehicle: Klucel (hydroxypropylcellulose) (HPC) 98 % of control and 100 % of control | dose: 25.0 mg/kg/injection, schedule: Q04DX003 (ip), vehicle: saline 97 % of control and 100 % of control | dose: 50.0 mg/kg/injection, schedule: Q01DX001 (ip), vehicle: saline 98 % of control and 102 % of control | dose: 50.0 mg/kg/injection, schedule: Q04DX003 (ip), vehicle: saline 98 % of control

Cc1ccc(CNC(=O)NC(C)(C)C)cc1C
inactive: [9] 103 % of control | [10] 111 % of control | [11] 100 % of control

Cc1ccccc1C1SCCCS1
inactive: [2] 101 % of control | [4] 96 % of control | [6] 107 % of control

CC(=O)C(C(=O)c1ccccc1)c1cc(NS(=O)(=O)N(C)C)ccc1NS(=O)(=O)N(C)C (stereo not given)
inactive: dose: 25.0 mg/kg/injection, schedule: Q01DX001 (ip), vehicle: saline with Tween-80 98 % of control | dose: 50.0 mg/kg/injection, schedule: Q01DX001 (ip), vehicle: saline with Tween-80 93 % of control | dose: 100.0 mg/kg/injection, schedule: Q01DX001 (ip), vehicle: saline with Tween-80 100 % of control
